Measurements taken from PubChem BioAssay AID330 (DTP/NCI, 2004).
Several values for one entry are separate records, joined by “and”; a condition that tells them apart may be missing. Equal entries are not always repeated. Inconclusive results and toxic doses are left out. How the source made its calls: active means survival T/C of 150% or more; inactive means T/C below 125% in these data.

Tested on: P388 leukemia ip, CD2F1 mice, survival T/C
Assay: NCI In Vivo Anticancer Drug Screen. Data for tumor model P388 Leukemia (intraperitoneal) in CD2F1 (CDF1) mice
Details: endpoint: median survival time, higher = longer survival
In short: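 Mice carrying the transplanted tumor received test compound or vehicle. Survival was recorded in each group, and the value is the treated-group measurement divided by that of the vehicle-treated control group.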

[1] = dose: 50.0 mg/kg/injection, schedule: Q01DX005 (ip), vehicle: Klucel (hydroxypropylcellulose) (HPC)
[2] = dose: 100.0 mg/kg/injection, schedule: Q01DX005 (ip), vehicle: Klucel (hydroxypropylcellulose) (HPC)
[3] = dose: 200.0 mg/kg/injection, schedule: Q01DX005 (ip), vehicle: Klucel (hydroxypropylcellulose) (HPC)
[4] = dose: 50.0 mg/kg/injection, schedule: Q01DX005 (ip), vehicle: saline with Tween-80
[5] = dose: 100.0 mg/kg/injection, schedule: Q01DX005 (ip), vehicle: saline with Tween-80
[6] = dose: 200.0 mg/kg/injection, schedule: Q01DX005 (ip), vehicle: saline with Tween-80
[7] = dose: 100.0 mg/kg/injection, schedule: Q01DX009 (ip), vehicle: saline with Tween-80
[8] = dose: 200.0 mg/kg/injection, schedule: Q01DX009 (ip), vehicle: saline with Tween-80
[9] = dose: 50.0 mg/kg/injection, schedule: Q01DX009 (ip), vehicle: saline
[10] = dose: 100.0 mg/kg/injection, schedule: Q01DX009 (ip), vehicle: saline
[11] = dose: 50.0 mg/kg/injection, schedule: Q01DX005 (ip), vehicle: saline
[12] = dose: 100.0 mg/kg/injection, schedule: Q01DX005 (ip), vehicle: saline
[13] = dose: 200.0 mg/kg/injection, schedule: Q01DX005 (ip), vehicle: saline

Measured: T/C

O=C1C2C3C=CC(C2C(=O)N1COP(=O)(OCc1ccccc1)OCc1ccccc1)C1C2C(=O)N(COP(=O)(OCc4ccccc4)OCc4ccccc4)C(=O)C2C31 (centres undefined)
inactive: dose: 6.25 mg/kg/injection, schedule: Q01DX009 (ip), vehicle: saline + Tween-80 + alcohol 99 % of control | dose: 12.5 mg/kg/injection, schedule: Q01DX009 (ip), vehicle: saline + Tween-80 + alcohol 105 % of control | dose: 25.0 mg/kg/injection, schedule: Q01DX009 (ip), vehicle: saline + Tween-80 + alcohol 103 % of control | dose: 50.0 mg/kg/injection, schedule: Q01DX009 (ip), vehicle: saline + Tween-80 + alcohol 106 % of control | dose: 75.0 mg/kg/injection, schedule: Q01DX008 (ip), vehicle: saline + Tween-80 + alcohol 109 % of control | dose: 100.0 mg/kg/injection, schedule: Q01DX009 (ip), vehicle: saline + Tween-80 + alcohol 107 % of control | dose: 150.0 mg/kg/injection, schedule: Q01DX008 (ip), vehicle: saline + Tween-80 + alcohol 99 % of control | dose: 300.0 mg/kg/injection, schedule: Q01DX008 (ip), vehicle: saline + Tween-80 + alcohol 100 % of control

COc1ccc(C2(O)c3ccccc3C(=O)c3ccccc32)cc1
inactive: [1] 95 % of control | [2] 96 % of control | [3] 107 % of control

CC(NC(=O)OC(C)(C)C)C(=O)NC(C)C(=O)NC(C)C(=O)OCc1ccccc1 (centres undefined)
inactive: [4] 99 % of control | [5] 99 % of control | [6] 101 % of control

CC1OC(OCC2OC(Oc3c(-c4ccc(O)cc4)oc4cc(OC5OC(C)C(O)C(O)C5O)cc(O)c4c3=O)C(O)C(O)C2O)C(O)C(O)C1O (centres undefined)
inactive: [7] 95 % of control | dose: 100.0 mg/kg/injection, schedule: Q04DX003 (ip), vehicle: saline sonified 90 % of control | [8] 95 % of control | dose: 200.0 mg/kg/injection, schedule: Q04DX003 (ip), vehicle: saline sonified 90 % of control | dose: 400.0 mg/kg/injection, schedule: Q01DX009 (ip), vehicle: saline with Tween-80 95 % of control | dose: 400.0 mg/kg/injection, schedule: Q04DX003 (ip), vehicle: saline sonified 90 % of control

CC1C2C=CC1C(c1c3ccc(=O)c(O)c-3oc3c(O)c(O)ccc13)C2C(=O)O (centres undefined)
inactive: dose: 60.0 mg/kg/injection, schedule: Q01DX005 (ip), vehicle: saline with Tween-80 94 % of control | dose: 120.0 mg/kg/injection, schedule: Q01DX005 (ip), vehicle: saline with Tween-80 87 % of control | dose: 240.0 mg/kg/injection, schedule: Q01DX005 (ip), vehicle: saline with Tween-80 91 % of control

CC(C)OP(=O)(NNP(=O)(OC(C)C)OC(C)C)OC(C)C
inactive: [9] 104 % of control | [10] 105 % of control | dose: 200.0 mg/kg/injection, schedule: Q01DX009 (ip), vehicle: saline 114 % of control

C=C(CCCCOCOCCOC)c1ccccc1
inactive: [11] 106 % of control | [12] 107 % of control | [13] 99 % of control

O=C1/C(=C/c2cccc3ccccc23)SC(=S)N1Cc1ccco1
inactive: dose: 50.0 mg/kg/injection, schedule: Q01DX009 (ip), vehicle: saline with Tween-80 92 % of control | [7] 92 % of control | [8] 99 % of control

Nc1ccc[nH]c1=O
inactive: dose: 12.5 mg/kg/injection, schedule: Q01DX009 (ip), vehicle: saline 100 % of control and 113 % of control | dose: 25.0 mg/kg/injection, schedule: Q01DX009 (ip), vehicle: saline 103 % of control | [9] 98 % of control and 103 % of control | [10] 103 % of control and 113 % of control | dose: 400.0 mg/kg/injection, schedule: Q01DX009 (ip), vehicle: saline 100 % of control

Brc1ccc(-n2c(-c3ccccc3)cs/c2=N\Nc2nnc(-c3ccccc3)c(-c3ccccc3)n2)cc1
inactive: [4] 101 % of control | [5] 87 % of control | [6] 92 % of control

C/C(=C\c1ccc(Cl)cc1)C(=O)N1CCN(c2ccccc2)CC1
inactive: [1] 105 % of control | [2] 91 % of control | [3] 96 % of control

O=C1N2CCSC2=NC1(c1ccccc1)c1ccccc1
inactive: dose: 25.0 mg/kg/injection, schedule: Q04DX003 (ip), vehicle: Klucel (hydroxypropylcellulose) (HPC) 100 % of control | dose: 50.0 mg/kg/injection, schedule: Q04DX003 (ip), vehicle: Klucel (hydroxypropylcellulose) (HPC) 100 % of control | dose: 100.0 mg/kg/injection, schedule: Q04DX003 (ip), vehicle: Klucel (hydroxypropylcellulose) (HPC) 93 % of control | dose: 200.0 mg/kg/injection, schedule: Q04DX003 (ip), vehicle: Klucel (hydroxypropylcellulose) (HPC) 102 % of control | dose: 400.0 mg/kg/injection, schedule: Q04DX003 (ip), vehicle: Klucel (hydroxypropylcellulose) (HPC) 100 % of control

CCOC(=O)/C(C=NC1CC(N=C/C(C(=O)OCC)=C(\C)O)CC(N=C/C(C(=O)OCC)=C(\C)O)C1)=C(/C)O (centres undefined)
inactive: dose: 6.25 mg/kg/injection, schedule: Q01DX009 (ip), vehicle: Klucel (hydroxypropylcellulose) (HPC) 106 % of control | dose: 12.5 mg/kg/injection, schedule: Q01DX009 (ip), vehicle: Klucel (hydroxypropylcellulose) (HPC) 103 % of control | dose: 25.0 mg/kg/injection, schedule: Q01DX009 (ip), vehicle: Klucel (hydroxypropylcellulose) (HPC) 97 % of control | dose: 50.0 mg/kg/injection, schedule: Q01DX009 (ip), vehicle: Klucel (hydroxypropylcellulose) (HPC) 93 % of control

CC(C)(C)OC(=O)c1cccc(Br)c1
inactive: [4] 101 % of control | [5] 104 % of control | [6] 105 % of control

CCOC(=O)C(=NNc1cc(OC)c(Cl)cc1OC)C(=O)OCC
inactive: [1] 94 % of control | [2] 94 % of control | [3] 94 % of control

CC(NC(=O)OCc1ccccc1)C(=O)NC(CCC(=O)O)C(=O)O (centres undefined)
inactive: [11] 97 % of control | [12] 101 % of control | [13] 106 % of control

[N-]=[N+]=NC12CC3CC4C5CC(CC41)CC2[C@H]5C3
inactive: [4] 97 % of control | [5] 99 % of control | [6] 100 % of control
